Test system: 5α-reductase
Experiment: Inhibition of 5α-reductase in vivo (castrated male rats, organ weights and LH/FSH after 10 daily doses)
Set-up: species or system albino rats
Description: The in vivo testing was carried out as follows:
Adult male albino rats weighing 200 g were castrated. Two hours later they received the first of 10 daily dosages of the test substance suspended in 0.5% carboxymethylcellulose, 0.4% Tween 80 and 0.9% benzyl alcohol in physiological sodium chloride solution. Three hours after the last medication on the tenth day of treatment, the animals were decapitated, the blood from the body was collected, and the seminal vesicles, the ventral prostate and the Levator ani muscle were removed and weighed. The results are given as ng of NIAMDD-RP-1/ml.
VP: Ventral prostrate, SV: Seminal vesicle, MLA: Levator ani muscle
LH: Luteinizing hormone, FSH: Follicle stimulating hormone

[1] = T sc 0.5 mg/kg alone, experiment with F
[2] = T sc 0.5 mg/kg alone, experiment with L po
[3] = Testosterone sc 0.5 mg/kg alone, experiment with D
[4] = TP 0.5 mg/kg alone, experiment with A
[5] = TP sc 0.5 mg/kg alone, experiment with L sc
[6] = A sc 15 mg/kg + TP sc 0.5 mg/kg
[7] = L sc 15 mg/kg + TP sc 0.5 mg/kg

## C[C@]12CC[C@H]3[C@@H](CCC4=CC(=O)CC[C@@]43C)[C@@H]1CC[C@@H]2O [T, Testosterone]
[1]
  LH (luteinizing hormone): 96 ± 37 ng/mL
  MLA (Levator ani muscle weight): 126 ± 7 mg
  SV (seminal vesicle weight): 85 ± 7 mg
  VP (ventral prostate weight): 128 ± 12 mg
[2]
  MLA (Levator ani muscle weight): 109 ± 8 mg
  SV (seminal vesicle weight): 92 ± 13 mg
  VP (ventral prostate weight): 96 ± 10 mg
[3]
  FSH (follicle stimulating hormone): 1206 ± 114 ng/mL
  LH (luteinizing hormone): 104 ± 25 ng/mL
  MLA (Levator ani muscle weight): 108 ± 5 mg
  SV (seminal vesicle weight): 65 ± 5 mg
  VP (ventral prostate weight): 112 ± 10 mg

## CCC(=O)O[C@H]1CC[C@H]2[C@@H]3CCC4=CC(=O)CC[C@]4(C)[C@H]3CC[C@]12C [TP, Testosterone propionate]
[4]
  FSH (follicle stimulating hormone): 783 ± 167 ng/mL
  LH (luteinizing hormone): 101 ± 36 ng/mL
  MLA (Levator ani muscle weight): 137 ± 7 mg
  SV (seminal vesicle weight): 215 ± 13 mg
  VP (ventral prostate weight): 160 ± 18 mg
[5]
  FSH (follicle stimulating hormone): 915 ± 37 ng/mL
  LH (luteinizing hormone): 121 ± 12 ng/mL
  MLA (Levator ani muscle weight): 75 ± 4 mg
  SV (seminal vesicle weight): 69 ± 3 mg
  VP (ventral prostate weight): 108 ± 6 mg

## C[C@]12CC[C@H]3[C@@H](CCC4=CC(=O)CC[C@@]43C)[C@@H]1CCC[C@@H]2C(=O)O [Test substance A, 3-oxo-D-homo-androst-4-ene-17aα-carboxylic acid]
[6]
  FSH (follicle stimulating hormone): 1268 ± 125 ng/mL
  LH (luteinizing hormone): 283 ± 41 ng/mL
  MLA (Levator ani muscle weight): 118 ± 8 mg
  SV (seminal vesicle weight): 157 ± 15 mg
  VP (ventral prostate weight): 116 ± 11 mg

## COC(=O)[C@H]1CCC[C@H]2[C@@H]3CCC4=C(Cl)C(=O)CC[C@]4(C)[C@H]3CC[C@]12C [Test substance D, methyl 4-chloro-3-oxo-D-homo-androst-4-ene-17aβ-carboxylate]
D sc 10 mg/kg + T sc 0.5 mg/kg
  FSH (follicle stimulating hormone): 1325 ± 93 ng/mL
  LH (luteinizing hormone): 244 ± 45 ng/mL
  MLA (Levator ani muscle weight): 83 ± 6 mg
  SV (seminal vesicle weight): 51 ± 9 mg
  VP (ventral prostate weight): 95 ± 10 mg

## C[C@]12CCC(=O)C=C1CC[C@@H]1[C@@H]2CC[C@@]2(C)[C@H]1CC=C[C@@]21CCCO1 [Test substance F, 4,5-dihydrospiro[furan-2(3H),17'a(β1)-D-homo-androsta-4,16-dien]-3'-one]
F sc 10 mg/kg + T sc 0.5 mg/kg
  LH (luteinizing hormone): 88 ± 15 ng/mL
  MLA (Levator ani muscle weight): 105 ± 6 mg
  SV (seminal vesicle weight): 66 ± 4 mg
  VP (ventral prostate weight): 93 ± 10 mg

## COC(=O)C1=CCC[C@H]2[C@@H]3CCC4=CC(=O)CC[C@]4(C)[C@H]3CC[C@]12C [Test substance L, methyl 3-oxo-D-homo-androsta-4,17-diene-17a-carboxylate]
L po 30 mg/kg + T sc 0.5 mg/kg
  MLA (Levator ani muscle weight): 88 ± 17 mg
  SV (seminal vesicle weight): 68 ± 13 mg
  VP (ventral prostate weight): 81 ± 16 mg
[7]
  FSH (follicle stimulating hormone): 1099 ± 94 ng/mL
  LH (luteinizing hormone): 163 ± 30 ng/mL
  MLA (Levator ani muscle weight): 67 ± 6 mg
  SV (seminal vesicle weight): 52 ± 1 mg
  VP (ventral prostate weight): 80 ± 6 mg

From patent US4361578A, “D-Homosteroids” (priority 1980, dated 1982)
